The text below walks through data of patent publication US5183883A, “Conjugate of adriamycin and cyclodextrin” (Mercian Corporation, priority 1990, dated 1993).

As a reminder, the LD50 is the dose at which mortality reaches 50%. As a reminder, the IC50 is the concentration needed to halve the response being measured.

Converted amounts (≈) assume the structure as drawn. Where a name gives a salt, the structure may show the parent alone. Read-outs that look alike come from different tables or passages of the source.

One data set concerns L1210 leukemia. As to the kind of experiment: Test of anti-cancer activity to L1210 leukemia mice. It counts as in vivo, CDF1 mice. The following applies: i.p., 10 days; for Survived mice/test mice: observed 60 days. As for the experimental part:
1×10^5 L1210 leukemia cells were inoculated into CDF1 mice intraperitoneally, and 24 hours later, the aqueous solution of the compound of this invention was intraperitoneally administered successively over 10 days. Test groups, each consisting of 6 mice, were fed and observed for 60 days, and percent prolongation of life (T/C; %) was found.

The conditions of data set [1]: intravenous injection in mice; Collection of Medicaments in Japan, 1989; cited from earlier work.
In a further data set the test system is mouse leukemia cells. The data set can be described thus: Cytotoxicity test. Particulars: for Cytotoxicity, IC50: 48 hours, 37° C., RPMI1640 with 10% horse serum, trypan blue. The protocol: 5×10^4 cells/ml of mouse leukemia cells were inoculated in a RPMI1640 culture medium containing 10% horse serum, and the compound of the present invention was added to this such that the final concentration became 0.001 to 10.0 μg/ml. Cultivation was conducted in a carbon dioxide gas incubator (air containing 5% carbon dioxide gas) at 37° C. for 48 hours.

Data set [2] in a line: Sustained release test (adriamycin liberated in phosphoric acid buffer physiological saline). In kind it is physicochemical. The following applies: 1 mg in 0.0067 M phosphoric acid buffer physiological saline, initial pH=7.36-7.37, 37° C., HPLC. As for the experimental part:
One milligram of each of the adriamycin derivatives obtained in Examples 1, 2, 3, 4, 5 and 6 to be described later was dissolved in 0.0067 M phosphoric acid buffer physiological saline solution made by Bioproducts, Inc. (initial pH=7.36-7.37), and the solution was kept at 37° C. The amount of adriamycin liberated in the solution was analyzed by HPLC [column=YMC Pack A-312 S-5 120A ODS; mobile phase=0.05M ammonium formate buffer (pH=4.0):- acetonitrile=7:4, flow rate=1 ml/min; measuring wavelength=254 nm; retention time of adriamycin under the present conditions=3.8 minutes].
Consequently, a 50 % released time of adriamycin from the adriamycin derivatives is as follows, and sustained release was confirmed.

The nature of a further data set: Toxicity test LD50. In kind it is in vivo. Particulars: mice, intravenously administered once. An excerpt: LD50 given when the adriamycin derivatives of this invention were intravenously administered once in mice is as follows.
Setting [3] is: 9.77 mg/kg/day (2.5 as adriamycin).
Where [4] appears, read: 19.53 mg/kg/day (5.0 as adriamycin).
The mark [5] stands for this setting: 39.06 mg/kg/day (10.0 as adriamycin).
Setting [6] is: 78.13 mg/kg/day (20.0 as adriamycin).
The mark [7] stands for this setting: 156.25 mg/kg/day (40.0 as adriamycin).
The mark [8] stands for this setting: 9.54 mg/kg/day (2.5 as adriamycin).
[9] abbreviates: 13.36 mg/kg/day (3.5 as adriamycin).
[10] abbreviates: 19.08 mg/kg/day (5.0 as adriamycin).
[11] abbreviates: 26.72 mg/kg/day (7.0 as adriamycin).
[12] abbreviates: 38.17 mg/kg/day (10.0 as adriamycin).

For `COc1cccc2c1C(=O)c1c(O)c3c(c(O)c1C2=O)C[C@@](O)(C(=O)CO)C[C@@H]3O[C@H]1C[C@H](N)[C@H](O)[C@H](C)O1` [Adriamycin hydrochloride, reference compound], the “Anti-cancer activity, T/C (%)” value in the data set on L1210 leukemia (0.31 mg/kg/day) is 170%; with L1210 leukemia (0.63 mg/kg/day), 218%; in the data set on L1210 leukemia (1.25 mg/kg/day), 255%; with L1210 leukemia (2.50 mg/kg/day), 177%; in the data set on L1210 leukemia (5.00 mg/kg/day), 132%. The Survived mice/test mice with L1210 leukemia (0.31 mg/kg/day), with L1210 leukemia (0.63 mg/kg/day), in the data set on L1210 leukemia (1.25 mg/kg/day), in the data set with L1210 leukemia (2.50 mg/kg/day) and in the data set with L1210 leukemia (5.00 mg/kg/day) was 0/6 throughout.

In the case of `COc1cccc2c1C(=O)c1c(O)c3c(c(O)c1C2=O)C[C@@](O)(C(=O)CO)C[C@@H]3O[C@H]1C[C@H](N)[C@H](O)[C@H](C)O1` [Adriamycin, adriamycin], in data set [1], the 50% lethal dose (LD50) is on record as 9.8 mg/kg. Also, the 50% inhibitory concentration (IC50) in the data set with mouse leukemia cells (Mus musculus, 48 h, read-out: Cytotoxicity, IC50) is 0.058 µg/mL (≈ 0.107 µM).

Regarding `COc1cccc2c1C(=O)c1c(O)c3c(c(O)c1C2=O)C[C@@](O)(C(=O)COC(=O)C1CCCCC1C(=O)OC[C@H]1O[C@@H]2O[C@H]4[C@H](O)[C@@H](O)[C@@H](O[C@H]5[C@H](O)[C@@H](O)[C@@H](O[C@H]6[C@H](O)[C@@H](O)[C@@H](O[C@H]7[C@H](O)[C@@H](O)[C@@H](O[C@H]8[C@H](O)[C@@H](O)[C@@H](O[C@H]9[C@H](O)[C@@H](O)[C@@H](O[C@H]%10[C@H](O)[C@@H](O)[C@@H](O[C@H]1[C@H](O)[C@H]2O)O[C@@H]%10CO)O[C@@H]9CO)O[C@@H]8CO)O[C@@H]7CO)O[C@@H]6CO)O[C@@H]5CO)O[C@@H]4CO)C[C@@H]3O[C@H]1C[C@H](N)[C@H](O)[C@H](C)O1` (some centres unmarked) [Example 6-ACC, adriamycin (14-position)-ciscyclohexanedicarboxylic acid-(6-position) γ-cyclodextrin conjugate], the “Cytotoxicity, IC50” value in the data set with mouse leukemia cells was 2.07 µg/mL. In data set [2], the “50 % released time of adriamycin from the adriamycin derivatives” value (shortened to “50 % released time of adriamycin”) was over 70 h.

As for `COc1cccc2c1C(=O)c1c(O)c3c(c(O)c1C2=O)C[C@@](O)(C(=O)COC(=O)c1cc2ccccc2cc1C(=O)OC[C@H]1O[C@@H]2O[C@H]4[C@H](O)[C@@H](O)[C@@H](O[C@H]5[C@H](O)[C@@H](O)[C@@H](O[C@H]6[C@H](O)[C@@H](O)[C@@H](O[C@H]7[C@H](O)[C@@H](O)[C@@H](O[C@H]8[C@H](O)[C@@H](O)[C@@H](O[C@H]9[C@H](O)[C@@H](O)[C@@H](O[C@H]%10[C@H](O)[C@@H](O)[C@@H](O[C@H]1[C@H](O)[C@H]2O)O[C@@H]%10CO)O[C@@H]9CO)O[C@@H]8CO)O[C@@H]7CO)O[C@@H]6CO)O[C@@H]5CO)O[C@@H]4CO)C[C@@H]3O[C@H]1C[C@H](N)[C@H](O)[C@H](C)O1` [Example 6-ANC, adriamycin (14-position)-naphthalenedicarboxylic acid-(6-position) γ-cyclodextrin conjugate], the “Cytotoxicity, IC50” value in the data set with mouse leukemia cells was 0.79 µg/mL. Further, the “50 % released time of adriamycin” value in data set [2] is given as “about 65 hours”.

In the case of `COc1cccc2c1C(=O)c1c(O)c3c(c(O)c1C2=O)C[C@@](O)(C(=O)COC(=O)c1ccccc1C(=O)OC[C@H]1O[C@@H]2O[C@H]4[C@H](O)[C@@H](O)[C@@H](O[C@H]5[C@H](O)[C@@H](O)[C@@H](O[C@H]6[C@H](O)[C@@H](O)[C@@H](O[C@H]7[C@H](O)[C@@H](O)[C@@H](O[C@H]8[C@H](O)[C@@H](O)[C@@H](O[C@H]9[C@H](O)[C@@H](O)[C@@H](O[C@H]%10[C@H](O)[C@@H](O)[C@@H](O[C@H]1[C@H](O)[C@H]2O)O[C@@H]%10CO)O[C@@H]9CO)O[C@@H]8CO)O[C@@H]7CO)O[C@@H]6CO)O[C@@H]5CO)O[C@@H]4CO)C[C@@H]3O[C@H]1C[C@H](N)[C@H](O)[C@H](C)O1` [Example 6-APC, adriamycin (14-position)-phthalic acid-(6-position) γ-cyclodextrin conjugate], the “Cytotoxicity, IC50” value with mouse leukemia cells was 0.49 µg/mL. In addition, in data set [2], the “50 % released time of adriamycin” value was “about 45 hours”.

With `COc1cccc2c1C(=O)c1c(O)c3c(c(O)c1C2=O)C[C@@](O)(C(=O)COC(=O)CCC(=O)OC[C@H]1O[C@@H]2O[C@H]4[C@H](O)[C@@H](O)[C@@H](O[C@H]5[C@H](O)[C@@H](O)[C@@H](O[C@H]6[C@H](O)[C@@H](O)[C@@H](O[C@H]7[C@H](O)[C@@H](O)[C@@H](O[C@H]8[C@H](O)[C@@H](O)[C@@H](O[C@H]9[C@H](O)[C@@H](O)[C@@H](O[C@H]%10[C@H](O)[C@@H](O)[C@@H](O[C@H]1[C@H](O)[C@H]2O)O[C@@H]%10CO)O[C@@H]9CO)O[C@@H]8CO)O[C@@H]7CO)O[C@@H]6CO)O[C@@H]5CO)O[C@@H]4CO)C[C@@H]3O[C@H]1C[C@H](N)[C@H](O)[C@H](C)O1` [Example 6-ASC, adriamycin (14-position)-succinic acid (6-position) γ-cyclodextrin conjugate], the “Cytotoxicity, IC50” value with mouse leukemia cells came to 0.21 µg/mL. Moreover, the “50 % released time of adriamycin” value in data set [2] is on record as “about 3 hours”.

Regarding “adriamycin-phthalic acid-γ-cyclodextrin conjugate [APC]”, the LD50 in the data set “Toxicity test LD50” (as derivative) was determined as 555 mg/kg. For the same molecule, the LD50 as adriamycin in “Toxicity test LD50” (calculated as adriamycin) was 147 mg/kg as adriamycin. For the same molecule, the “Cytotoxicity, IC50” value with mouse leukemia cells amounted to 0.32 µg/mL. Also, the “Anti-cancer activity, T/C (%)” value is 164% in the data set with L1210 leukemia (setting [3]); 234% with L1210 leukemia (setting [4]); 468% in the data set on L1210 leukemia (setting [5]); 475% in the data set with L1210 leukemia (setting [6]); 143% in the data set with L1210 leukemia (setting [7]). In addition, the Survived mice/test mice is 0/6 in the data set on L1210 leukemia (setting [3]); 0/6 in the data set with L1210 leukemia (setting [4]); 2/6 with L1210 leukemia (setting [5]); 0/6 with L1210 leukemia (setting [6]); 0/6 in the data set on L1210 leukemia (setting [7]). In data set [2], the “50 % released time of adriamycin” value is reported as “about 20 hours”.

For the molecule “adriamycin-succinic acid-γ-cyclodextrin conjugate [ASC]”, the “Anti-cancer activity, T/C (%)” value with L1210 leukemia (setting [8]) is 207%; in the data set on L1210 leukemia (setting [9]), 545%; in the data set on L1210 leukemia (setting [10]), 552%; in the data set on L1210 leukemia (setting [11]), 193%; in the data set on L1210 leukemia (setting [12]), 159%. The Survived mice/test mice is listed as 0/6 with L1210 leukemia (setting [8]); 3/6 in the data set on L1210 leukemia (setting [9]); 3/6 with L1210 leukemia (setting [10]); 0/6 in the data set on L1210 leukemia (setting [11]); 0/6 in the data set with L1210 leukemia (setting [12]).
